Laboratory results published in patent publication US10780074B2, “Compounds and uses thereof” (Sunovion Pharmaceuticals Inc., priority 2017, dated 2020).
Where a name gives a salt, the structure may show the parent alone.

Test system: behaviors of compound-treated mice
Test: Neuropharmacological Assay (SmartCube)
Type: in vivo
Conditions: for minimal effective dose: Mus musculus, ip, 0.25 h, dose having 50% or more total activity in SmartCube, i.p., read-out: MED (minimal effective dose); for AD: ADHD (probability that activity matches class) / AG: analgesic (probability that activity matches class) / AX: anxiolytic (probability that activity matches class) / CE: cognitive enhancer (probability that activity matches class) / DP: anti-depressant (probability that activity matches class) / MS: mood stabilizer (probability that activity matches class) / PS: anti-psychotic (probability that activity matches class) / SD: sedative hypnotic (probability that activity matches class) / UN: uncharacterized CNS activity (probability that activity matches class): i.p. 15 min before behavioral test, most efficacious dose(s) of 3 doses
Outline: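 Behavioral signatures were captured automatically by video, and each drug class received a probability for the best of three i.p. doses given 15 min pre-test (vehicle: Pharmasolve/PEG/propylene glycol). Potency is given as MED, the lowest mpk dose (typically 0.3–30) reaching 50% or more total activity.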

Row | SMILES | minimal effective dose [mg/kg] | AD: ADHD (probability that activity matches class) | AG: analgesic (probability that activity matches class) | AX: anxiolytic (probability that activity matches class) | CE: cognitive enhancer (probability that activity matches class) | DP: anti-depressant (probability that activity matches class) | MS: mood stabilizer (probability that activity matches class) | PS: anti-psychotic (probability that activity matches class) | SD: sedative hypnotic (probability that activity matches class) | UN: uncharacterized CNS activity (probability that activity matches class)
1 | CNC[C@@H]1OCCc2c(-c3cc(C)nc(C)c3)cccc21 [Compound 124, (R)-1-(5-(2,6-dimethylpyridin-4-yl)isochroman-1-yl)-N-methylmethanamine dihydrochloride] | 10 to 30 | + (LOQ ≤ + <5%) | + (LOQ ≤ + <5%) | + (LOQ ≤ + <5%) | + (LOQ ≤ + <5%) | + (LOQ ≤ + <5%) | + (LOQ ≤ + <5%) | + (LOQ ≤ + <5%) | + (LOQ ≤ + <5%) | + (LOQ ≤ + <5%)
2 | NC[C@@H]1OCCCc2c(-c3cncs3)cccc21 (single isomer, unassigned) [Compound 170, hydrochloride salt] | 3 to 10 | + (LOQ ≤ + <5%) | + (LOQ ≤ + <5%) | ++ (5% ≤ ++ <25%) | + (LOQ ≤ + <5%) | ++ (5% ≤ ++ <25%) | + (LOQ ≤ + <5%) | + (LOQ ≤ + <5%) | ++ (5% ≤ ++ <25%) | +++ (25% ≤ +++ <50%)
3 | CNC[C@H]1OCCc2c(-c3cccnc3)cccc21 (single isomer, unassigned) [Compound 8, bis-hydrochloride] | ≤ 3 | ++ (5% ≤ ++ <25%) | + (LOQ ≤ + <5%) | ++ (5% ≤ ++ <25%) | + (LOQ ≤ + <5%) | ++++ (50% ≤ ++++) | + (LOQ ≤ + <5%) | + (LOQ ≤ + <5%) | + (LOQ ≤ + <5%) | + (LOQ ≤ + <5%)
4 | CNC[C@@H]1OCCc2c(-c3ccon3)cccc21 (single isomer, unassigned) [Compound 90, hydrochloride salt] | 10 to 30 | + (LOQ ≤ + <5%) | + (LOQ ≤ + <5%) | ++ (5% ≤ ++ <25%) | + (LOQ ≤ + <5%) | + (LOQ ≤ + <5%) | + (LOQ ≤ + <5%) | + (LOQ ≤ + <5%) | + (LOQ ≤ + <5%) | + (LOQ ≤ + <5%)
5 | NC[C@H]1OCc2c(-c3ccncc3)cccc21 (single isomer, unassigned) [Compound 38, hydrochloride salt] | ≤ 3 | ++ (5% ≤ ++ <25%) | ++ (5% ≤ ++ <25%) | +++ (25% ≤ +++ <50%) | + (LOQ ≤ + <5%) | ++++ (50% ≤ ++++) | + (LOQ ≤ + <5%) | + (LOQ ≤ + <5%) | ++ (5% ≤ ++ <25%) | ++ (5% ≤ ++ <25%)
6 | CNC[C@@H]1OCCCc2c(-c3ccccn3)cccc21 (single isomer, unassigned) [Compound 156, hydrochloride salt] | 10 to 30 | + (LOQ ≤ + <5%) | + (LOQ ≤ + <5%) | + (LOQ ≤ + <5%) | + (LOQ ≤ + <5%) | + (LOQ ≤ + <5%) | + (LOQ ≤ + <5%) | + (LOQ ≤ + <5%) | + (LOQ ≤ + <5%) | + (LOQ ≤ + <5%)
7 | CNC[C@@H]1OCCCc2c(-c3ccncn3)cccc21 (single isomer, unassigned) [Compound 164, hydrochloride salt] | 10 to 30 | + (LOQ ≤ + <5%) | + (LOQ ≤ + <5%) | + (LOQ ≤ + <5%) | + (LOQ ≤ + <5%) | + (LOQ ≤ + <5%) | + (LOQ ≤ + <5%) | + (LOQ ≤ + <5%) | + (LOQ ≤ + <5%) | + (LOQ ≤ + <5%)
8 | Cc1cc(-c2cccc3c2CCO[C@@H]3CN)cc(C)n1 [Compound 127, dihydrochloride] | 10 to 30 | + (LOQ ≤ + <5%) | + (LOQ ≤ + <5%) | + (LOQ ≤ + <5%) | + (LOQ ≤ + <5%) | ++ (5% ≤ ++ <25%) | + (LOQ ≤ + <5%) | + (LOQ ≤ + <5%) | + (LOQ ≤ + <5%) | + (LOQ ≤ + <5%)
9 | NC[C@@H]1OCCc2c(-c3cccnc3)cccc21 [Compound 15, (R)-(5-(Pyridin-3-yl)isochroman-1-yl)methanamine hydrochloride] | 10 to 30 | ++ (5% ≤ ++ <25%) | ++ (5% ≤ ++ <25%) | ++ (5% ≤ ++ <25%) | + (LOQ ≤ + <5%) | +++ (25% ≤ +++ <50%) | ++ (5% ≤ ++ <25%) | ++ (5% ≤ ++ <25%) | + (LOQ ≤ + <5%) | + (LOQ ≤ + <5%)
10 | CNC[C@@H]1OCCc2c(-c3ccnc(C)c3)cccc21 (single isomer, unassigned) [Compound 120, hydrochloride salt] | 10 to 30 | + (LOQ ≤ + <5%) | + (LOQ ≤ + <5%) | ++ (5% ≤ ++ <25%) | + (LOQ ≤ + <5%) | ++ (5% ≤ ++ <25%) | + (LOQ ≤ + <5%) | + (LOQ ≤ + <5%) | + (LOQ ≤ + <5%) | + (LOQ ≤ + <5%)
